Data reported in ChEMBL document CHEMBL1201862, “PubChem BioAssay data set” (2004).
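Method: 48-hour compound exposure of cells in 96-well plates, five concentrations, linear interpolation of endpoints. GI50 is the concentration that inhibits growth by half.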 Active and inactive are the calls of the source. Rule as the data show it: active = GI50 up to about 1.1 µM and inactive = higher.

Columns and labels:
Test in all cases: inhibition of tumour cell growth, NCI panel, 48 h
LOX IMVI = tested on: LOX IMVI
NCI-H23 = tested on: NCI-H23
SK-OV-3 = tested on: SK-OV-3
OVCAR-8 = tested on: OVCAR-8
KM12 = tested on: KM12
COLO 205 = tested on: COLO 205
NCI-H226 = tested on: NCI-H226
HT-29 = tested on: HT-29
MDA-MB-435 = tested on: MDA-MB-435
HCT-116 = tested on: HCT-116
SF-539 = tested on: SF-539
SR = tested on: SR
K562 = tested on: K562
ACHN = tested on: ACHN
SF-295 = tested on: SF-295
DU-145 = tested on: DU-145
UO-31 = tested on: UO-31
Malme-3M = tested on: Malme-3M
UACC-257 = tested on: UACC-257
NCI-H460 = tested on: NCI-H460

| SMILES | GI50 (LOX IMVI) | GI50 (NCI-H23) | GI50 (SK-OV-3) | GI50 (OVCAR-8) | GI50 (KM12) | GI50 (COLO 205) | GI50 (NCI-H226) | GI50 (HT-29) | GI50 (MDA-MB-435) | GI50 (HCT-116) | GI50 (SF-539) | GI50 (SR) | GI50 (K562) | GI50 (ACHN) | GI50 (SF-295) | GI50 (DU-145) | GI50 (UO-31) | GI50 (Malme-3M) | GI50 (UACC-257) | GI50 (NCI-H460) |
| --- | --- | --- | --- | --- | --- | --- | --- | --- | --- | --- | --- | --- | --- | --- | --- | --- | --- | --- | --- | --- |
| O=C1CSC(c2ccc(Cl)cc2)N1c1ccc(Oc2ccc(Cl)cc2)c(Cl)c1 (configuration not stated) | 15.2 µM (inactive) | 16.9 µM (inactive) | 17.6 µM (inactive) | 17.5 µM (inactive) | 15.7 µM (inactive) | 18.2 µM (inactive) | 17.4 µM (inactive) | 18.6 µM (inactive) | 17.6 µM (inactive) | 15.7 µM (inactive) | 14.6 µM (inactive) | 18.4 µM (inactive) | 17.3 µM (inactive) | 17.4 µM (inactive) | 16.3 µM (inactive) | 13.1 µM (inactive) | 8.26 µM (inactive) | 7.66 µM (inactive) | 18.2 µM (inactive) | 18.5 µM (inactive) |
| CCOC(NC(=O)CC)(C(F)(F)F)C(F)(F)F | > 100 µM (inactive) | > 100 µM (inactive) | > 100 µM (inactive) | > 100 µM (inactive) | > 100 µM (inactive) | > 100 µM (inactive) | > 100 µM (inactive) | > 100 µM (inactive) | > 100 µM (inactive) | > 100 µM (inactive) | > 100 µM (inactive) | > 100 µM (inactive) | > 100 µM (inactive) | > 100 µM (inactive) | > 100 µM (inactive) | > 100 µM (inactive) | > 100 µM (inactive) | > 100 µM (inactive) | > 100 µM (inactive) | > 100 µM (inactive) |
| O=C1N/C(=N/N=C\c2ccccc2)N/C1=C/c1ccc(Cl)cc1 | 26.1 µM (inactive) | 19 µM (inactive) | 20.7 µM (inactive) | 21.7 µM (inactive) | 27.1 µM (inactive) | 32.2 µM (inactive) | 15.5 µM (inactive) | 33 µM (inactive) | 33.3 µM (inactive) | 26.9 µM (inactive) | 23.9 µM (inactive) | 13.3 µM (inactive) | 34 µM (inactive) | 13.8 µM (inactive) | 25.7 µM (inactive) | 28.6 µM (inactive) | 16.2 µM (inactive) | 20.8 µM (inactive) | 43 µM (inactive) | 18.4 µM (inactive) |
| CC1=C/C(=N\NC(N)=S)C(C(O)(C(F)(F)F)C(F)(F)F)C(C)(C)C1 (configuration not stated) | > 10 µM (inactive) | > 10 µM (inactive) | > 10 µM (inactive) | > 10 µM (inactive) | > 10 µM (inactive) | > 10 µM (inactive) | > 10 µM (inactive) | > 10 µM (inactive) | > 10 µM (inactive) | > 10 µM (inactive) | > 10 µM (inactive) | > 10 µM (inactive) | > 10 µM (inactive) | > 10 µM (inactive) | > 10 µM (inactive) | > 10 µM (inactive) | – | > 10 µM (inactive) | > 10 µM (inactive) | > 10 µM (inactive) |
| C=CCn1c(-c2ccc(Cl)cc2)cs/c1=N\c1ccccc1OC | 41.1 µM (inactive) | 7.67 µM (inactive) | > 45.2 µM (inactive) | 27 µM (inactive) | 15.8 µM (inactive) | 35.8 µM (inactive) | > 64.7 µM (inactive) | – | 5.06 µM (inactive) | 9.31 µM (inactive) | > 76.7 µM (inactive) | 0.195 µM (active) | 3.44 µM (inactive) | > 100 µM (inactive) | 16.6 µM (inactive) | > 100 µM (inactive) | > 100 µM (inactive) | 31.1 µM (inactive) | 7.46 µM (inactive) | 36 µM (inactive) |
| C=CCN(c1cc(OC)c2[nH]c(C(=O)O)c(C)c2c1[N+](=O)[O-])S(C)(=O)=O | > 100 µM (inactive) | > 100 µM (inactive) | > 100 µM (inactive) | > 100 µM (inactive) | > 100 µM (inactive) | > 100 µM (inactive) | > 100 µM (inactive) | – | > 100 µM (inactive) | > 100 µM (inactive) | > 100 µM (inactive) | > 100 µM (inactive) | > 100 µM (inactive) | > 100 µM (inactive) | > 100 µM (inactive) | > 100 µM (inactive) | > 100 µM (inactive) | 9.79 µM (inactive) | > 100 µM (inactive) | > 100 µM (inactive) |
| CC(O)C1(CNc2cc(Cl)nc(N)n2)CCCCC1 (configuration not stated) | 91 µM (inactive) | 83.6 µM (inactive) | > 100 µM (inactive) | > 100 µM (inactive) | 85.3 µM (inactive) | > 100 µM (inactive) | > 100 µM (inactive) | > 100 µM (inactive) | > 100 µM (inactive) | > 100 µM (inactive) | > 100 µM (inactive) | 66.1 µM (inactive) | 69.3 µM (inactive) | > 100 µM (inactive) | > 100 µM (inactive) | > 100 µM (inactive) | 59.2 µM (inactive) | > 100 µM (inactive) | 84.9 µM (inactive) | > 100 µM (inactive) |
